Results: ChEMBL document CHEMBL1201862, “PubChem BioAssay data set” (2004)
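Exposure lasted 48 hours, with cells grown in 96-well plates and compounds tested at five concentrations. Here, GI50 denotes the concentration required for 50% inhibition of growth.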 Calls of active or inactive are those of the source. Cut-off read from the data, not from the text of the source: active = GI50 up to about 1.1 µM and inactive = higher.

Key:
Test in all cases: NCI tumour cell line growth inhibition, 48 h
[1] = test system: SK-MEL-28
[2] = test system: HOP-62
[3] = test system: NCI/ADR-RES
[4] = test system: SF-295
[5] = test system: UO-31
[6] = test system: CAKI-1
[7] = test system: HOP-92
[8] = test system: PC-3
[9] = test system: U-251
[10] = test system: OVCAR-3
[11] = test system: IGROV-1
[12] = test system: K562
[13] = test system: OVCAR-4
[14] = test system: MCF7
[15] = test system: TK-10
[16] = test system: KM12
[17] = test system: CCRF-CEM
[18] = test system: MDA-N
[19] = test system: M14

Row | Structure (SMILES) | GI50 [1] | GI50 [2] | GI50 [3] | GI50 [4] | GI50 [5] | GI50 [6] | GI50 [7] | GI50 [8] | GI50 [9] | GI50 [10] | GI50 [11] | GI50 [12] | GI50 [13] | GI50 [14] | GI50 [15] | GI50 [16] | GI50 [17] | GI50 [18] | GI50 [19]
1 | N#C/C(=C\c1ccc([N+](=O)[O-])o1)c1n[nH]c(Cc2ccccc2)n1 | 2.03 µM (inactive) | 2.62 µM (inactive) | 2.79 µM (inactive) | 7.26 µM (inactive) | 2.66 µM (inactive) | 1.95 µM (inactive) | 2.77 µM (inactive) | 2.45 µM (inactive) | 2.81 µM (inactive) | 1.64 µM (inactive) | 1.4 µM (inactive) | 1.55 µM (inactive) | 1.82 µM (inactive) | 2.28 µM (inactive) | 2 µM (inactive) | 2.19 µM (inactive) | 0.265 µM (active) | 1 µM (active) | 1.63 µM (inactive)
2 | COc1ccc(/N=N\c2c(N)nn3c(SC)c(C#N)c(N)nc23)cc1 | 6.5 µM (inactive) | 22.3 µM (inactive) | 23.4 µM (inactive) | 19.9 µM (inactive) | 12.4 µM (inactive) | 10.9 µM (inactive) | 9.4 µM (inactive) | 6.87 µM (inactive) | 5.43 µM (inactive) | 2.82 µM (inactive) | 1.82 µM (inactive) | 2.16 µM (inactive) | 15.1 µM (inactive) | 2.4 µM (inactive) | 19.1 µM (inactive) | 15.1 µM (inactive) | 2.02 µM (inactive) | 13.6 µM (inactive) | 12.6 µM (inactive)
3 | O=[N+]([O-])c1cc2[nH]nnc2c2nonc12 | 38.5 µM (inactive) | 55 µM (inactive) | 48.3 µM (inactive) | 31.7 µM (inactive) | 17.9 µM (inactive) | 29.7 µM (inactive) | 36.5 µM (inactive) | 49.4 µM (inactive) | 28.4 µM (inactive) | 33.5 µM (inactive) | 51.9 µM (inactive) | 22.8 µM (inactive) | 30.1 µM (inactive) | 3.24 µM (inactive) | 40.4 µM (inactive) | 33 µM (inactive) | 14.4 µM (inactive) | 20.6 µM (inactive) | 22.4 µM (inactive)
4 | O=C(Nc1ccc(Cl)cc1)c1cc(S(=O)(=O)Nc2nc3cccnc3[nH]2)c(SSc2cc(Cl)c(C(=O)Nc3ccc(Cl)cc3)cc2S(=O)(=O)Nc2nc3cccnc3[nH]2)cc1Cl | > 100 µM (inactive) | > 100 µM (inactive) | > 100 µM (inactive) | > 100 µM (inactive) | > 100 µM (inactive) | > 100 µM (inactive) | > 100 µM (inactive) | > 100 µM (inactive) | > 100 µM (inactive) | > 100 µM (inactive) | > 100 µM (inactive) | 3.86 µM (inactive) | > 100 µM (inactive) | > 100 µM (inactive) | > 100 µM (inactive) | > 100 µM (inactive) | > 100 µM (inactive) | > 100 µM (inactive) | > 100 µM (inactive)
5 | Cc1ccsc1/C=N/Nc1nncc2ccccc12 | > 100 µM (inactive) | > 100 µM (inactive) | > 100 µM (inactive) | > 100 µM (inactive) | 21.9 µM (inactive) | > 100 µM (inactive) | > 100 µM (inactive) | 34.3 µM (inactive) | 58.3 µM (inactive) | > 100 µM (inactive) | 15.9 µM (inactive) | > 100 µM (inactive) | > 100 µM (inactive) | 37 µM (inactive) | > 100 µM (inactive) | > 100 µM (inactive) | 53.2 µM (inactive) | > 100 µM (inactive) | > 100 µM (inactive)
6 | CCN1CC2=C(NC(=S)NC2c2cc(OC)c(OC)c(OC)c2)/C(=C/c2cc(OC)c(OC)c(OC)c2)C1 (stereo unspecified) | 13.7 µM (inactive) | 50.6 µM (inactive) | 30.9 µM (inactive) | 53 µM (inactive) | 20.5 µM (inactive) | 19.4 µM (inactive) | 18.1 µM (inactive) | 26.4 µM (inactive) | 45.1 µM (inactive) | 67.5 µM (inactive) | 24.4 µM (inactive) | 17.3 µM (inactive) | 75.2 µM (inactive) | 24.6 µM (inactive) | 36.1 µM (inactive) | 98.6 µM (inactive) | 37.4 µM (inactive) | 25.8 µM (inactive) | 16.6 µM (inactive)
7 | Cc1cn(CC2=NCC(O)CN2)c(=O)[nH]c1=O (stereo unspecified) | > 100 µM (inactive) | > 100 µM (inactive) | > 100 µM (inactive) | > 100 µM (inactive) | > 100 µM (inactive) | > 100 µM (inactive) | > 100 µM (inactive) | > 100 µM (inactive) | > 100 µM (inactive) | > 100 µM (inactive) | > 100 µM (inactive) | > 100 µM (inactive) | > 100 µM (inactive) | > 100 µM (inactive) | > 100 µM (inactive) | > 100 µM (inactive) | > 100 µM (inactive) | > 100 µM (inactive) | > 100 µM (inactive)
8 | COC(=O)c1nc2c3c(cccc3c1C(=O)OC)Nc1ccccc1-2 | 59.7 µM (inactive) | 23.6 µM (inactive) | 17.8 µM (inactive) | 21.1 µM (inactive) | 18.8 µM (inactive) | 50.2 µM (inactive) | 16.9 µM (inactive) | 15.5 µM (inactive) | 32.1 µM (inactive) | 36.6 µM (inactive) | 32 µM (inactive) | 54.1 µM (inactive) | 35.9 µM (inactive) | 60.4 µM (inactive) | 40.9 µM (inactive) | 28.2 µM (inactive) | 13.2 µM (inactive) | 46.2 µM (inactive) | 44.8 µM (inactive)
9 | O=[N+]([O-])c1cccc2nc3ccccc3c(NCCCNc3c4ccccc4nc4cccc([N+](=O)[O-])c34)c12 | 0.0505 µM (active) | < 0.0156 µM (active) | 0.249 µM (active) | 0.037 µM (active) | 0.0472 µM (active) | < 0.0215 µM (active) | < 0.01 µM (active) | 0.0343 µM (active) | 0.0171 µM (active) | < 0.0258 µM (active) | 0.128 µM (active) | < 0.01 µM (active) | 0.0635 µM (active) | 0.0151 µM (active) | 0.02 µM (active) | < 0.013 µM (active) | 0.0251 µM (active) | 0.0123 µM (active) | < 0.0177 µM (active)
10 | OC1(c2ccccc2)CSC2=Nc3ccccc3C3CCN1N23 (stereo unspecified) | 4.16 µM (inactive) | 14.5 µM (inactive) | 18.5 µM (inactive) | 6.47 µM (inactive) | 15.4 µM (inactive) | 21.1 µM (inactive) | 18.9 µM (inactive) | 15.3 µM (inactive) | 14.9 µM (inactive) | 26.7 µM (inactive) | 13.3 µM (inactive) | 38.6 µM (inactive) | 23.1 µM (inactive) | 15.6 µM (inactive) | 22.3 µM (inactive) | 16.7 µM (inactive) | 26.2 µM (inactive) | 14.1 µM (inactive) | 21.9 µM (inactive)
11 | C[C@H]1[C@H](C)CC[C@]2(C(=O)OC3OC(CO)C(O)C(O)C3O)CC[C@]3(C)C(=CC[C@@H]4[C@@]5(C)C[C@@H](O)[C@@H]6OC(=O)c7cc(O)c(O)c(O)c7-c7c(cc(O)c(O)c7O)C(=O)OC[C@]6(CO)[C@@H]5CC[C@]43C)[C@H]12 (stereo partly specified) | > 100 µM (inactive) | 30.9 µM (inactive) | > 62.4 µM (inactive) | 29.2 µM (inactive) | 56.9 µM (inactive) | 17 µM (inactive) | 63.1 µM (inactive) | > 62.4 µM (inactive) | 16.4 µM (inactive) | 35.2 µM (inactive) | > 86.3 µM (inactive) | 45.7 µM (inactive) | 14.7 µM (inactive) | 7.1 µM (inactive) | > 100 µM (inactive) | 24.2 µM (inactive) | 20.8 µM (inactive) | 21.5 µM (inactive) | 97.9 µM (inactive)
12 | CN(C)c1cccc2c1C(=O)C=CC21c2ccc(N(C)C)c3c(N(C)C)ccc(c23)C(c2ccccc2)C1c1ccccc1 (stereo unspecified) | 17.5 µM (inactive) | 17.6 µM (inactive) | 22.6 µM (inactive) | 14.5 µM (inactive) | 4.8 µM (inactive) | 1.64 µM (inactive) | 8.73 µM (inactive) | 9.71 µM (inactive) | 10.5 µM (inactive) | 12.6 µM (inactive) | 12 µM (inactive) | 18.3 µM (inactive) | 3.85 µM (inactive) | 17.9 µM (inactive) | 12 µM (inactive) | 14.3 µM (inactive) | 4.86 µM (inactive) | 16.4 µM (inactive) | 16.7 µM (inactive)
13 | CCCCCCCCCCCC[C@H](O)[C@H]1CC[C@H]([C@H](O)CCCC[C@H](O)CCCCC[C@@H](O)CC2=C[C@H](C)OC2=O)O1 | 4.51 µM (inactive) | 6.3 µM (inactive) | 1.61 µM (inactive) | 1.63 µM (inactive) | 1.5 µM (inactive) | 6.24 µM (inactive) | 4.03 µM (inactive) | 3.1 µM (inactive) | 13.8 µM (inactive) | 2.19 µM (inactive) | 3.98 µM (inactive) | 1.23 µM (inactive) | 17.6 µM (inactive) | 1.4 µM (inactive) | 1.77 µM (inactive) | 3.51 µM (inactive) | 1.71 µM (inactive) | 2.37 µM (inactive) | 3.45 µM (inactive)
14 | CCOC(=O)C1=CN(C(=O)c2ccccc2)CCC1Cc1ccccc1 (stereo unspecified) | 22.9 µM (inactive) | 30 µM (inactive) | 20 µM (inactive) | 29.1 µM (inactive) | 33 µM (inactive) | 24.4 µM (inactive) | 14.7 µM (inactive) | 17.7 µM (inactive) | 21.1 µM (inactive) | 25.9 µM (inactive) | 27.3 µM (inactive) | 17.6 µM (inactive) | 24.5 µM (inactive) | 23.1 µM (inactive) | 22.9 µM (inactive) | 26.1 µM (inactive) | 18 µM (inactive) | 19.5 µM (inactive) | 18.6 µM (inactive)
